{"source": "patent US5858702A", "about": "“Isolation, cloning and expression of transmembrane water channel Aquaporin 5 (AQP5)” (The Johns Hopkins University, priority 1995, dated 1999)", "key": {"CHIP28": {"molecular_target": "T1, CHIP28 (Homo sapiens, UniProt P29972)", "T1 construct": "was comprised of AQP1 (the 28-kDa protein itself and the 35-60-kDa glycosylated protein); from tissue; host or cells: human erythrocytes (blood-bank units; small-scale purifications from freshly drawn whole blood)", "T1 sequence (P29972 2-269 limits assumed)": "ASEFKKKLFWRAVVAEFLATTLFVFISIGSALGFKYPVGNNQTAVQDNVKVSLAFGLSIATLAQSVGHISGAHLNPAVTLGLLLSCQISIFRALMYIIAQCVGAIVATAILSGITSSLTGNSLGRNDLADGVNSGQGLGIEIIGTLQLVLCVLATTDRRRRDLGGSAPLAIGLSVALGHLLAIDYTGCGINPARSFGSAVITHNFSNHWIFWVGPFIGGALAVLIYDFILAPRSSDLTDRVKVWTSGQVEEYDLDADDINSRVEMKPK", "assay": "Stopped-flow water flux (Pf) in CHIP28 proteoliposomes, effect of mercurial reagents", "format": "biochemical", "experimental": "Purified AQP1 was stored overnight at 0° C. or frozen for several days at -80° C. prior to reconstitution. Reconstitution into proteoliposomes was carried out in a final volume of 1 ml containing 60-90 μg of purified AQP 1 protein in chromatography buffer, 9 mg of bath-sonicated E. coli phospholipid, 1.25% (w/v) octyl glucoside, and 50 mM Tris-HCl (pH 7.5). The mixture was briefly blended on a vortex mixer and incubated for 20 minutes on ice. Proteoliposomes (or liposomes prepared without protein) were formed at room temperature by rapidly injecting the mixture into 25 ml of buffer A [50 mM MOPS, pH 7.5, 150 mM N-methyl-D-glucamine (NMDG) chloride also containing 10-15 mM carboxyfluorescein, 1 mM dithiothreitol, and 0.5 mM PMSF]. For the measurement of proton permeability, proteoliposomes and liposomes were loaded with buffer B (5 mM MOPS, pH 7.5, 150 mM KCl, 0.5 mM carboxyfluorescein, 1 mM dithiothreitol, and 0.5 mM PMSF). The suspension was incubated for 20 minutes at room temperature. Proteoliposomes or liposomes were collected by centrifugation for 1 hour at 123000×g in a Beckman Type 42.1 rotor at 4° C. The pellet was resuspended in 8 ml of buffer A or B and then centrifuged for 1 hour at 152000×g in a Beckman Type 50 Ti rotor. Proteoliposomes or liposomes were resuspended in 300 μl of buffer A or B and stored at 4° C. for 16-24 hours. Typically 50% (54±6%, n=5) of the AQP1 protein and 70% of the phospholipid were recovered in proteoliposomes. The lipid to protein ratio was in the range of 120:1 to 219:1. These proteoliposomes have internal volumes of 1 μl/mg of phospholipid (Ambudkar and Maloney, 1986, J. Biol. Chem. 261:10079-10086). Protein and phospholipid were measured as described by Ambudkar & Maloney (J. Biol. Chem., 1986, 261:10079-10086).\nPermeability measurements. Membrane permeability measurements (Pf) were measured by exposing AQP1 proteoliposomes or control liposomes to an osmotic gradient by rapid mixing with an equal volume of another solution containing buffer A plus sufficient sucrose to increase osmolality in the mixed solutions to a value 120% of that in the original solution. This was performed with a stopped-flow fluorometer (SF.17MV, Applied Photophysics, Leatherhead, U.K.) with a measured dead time of 0.7 ms. The excitation wavelength was set at 490±1.5 nm using a 150-W mercury-xenon arc lamp and monochromator (.function.3.4 grating monochromator, both from Applied Photophysics); the emission wavelength was >515 nm using a cut-on filter (Oriel Corp., Stratford, Conn.). Extravesicular carboxyfluorescein fluorescence was completely quenched using anti-fluorescein antibody (Harris et al., 1990, Am. J. Physiol. 259:F366-F371).\nWithin the range of osmolalities used in these experiments, the vesicles acted as perfect osmometers, and relative volume (absolute volume divided by initial volume) was linearly related to relative fluorescence (absolute fluorescence divided by initial fluorescence). The data obtained from 8 to 16 determinations was averaged and fit to single-exponential curves using 5 software provided by Applied Photophysics (Zeidel et al., 1992, Biochemistry 31:589-596). The fitting parameters were then used to determine Pf by first applying the linear conversion from relative fluorescence to relative volume and then iteratively solving the water permeability equation using MathCAD software (MathSoft, Cambridge, Mass.):\ndV(t)/dt=(Pf)(SAV)(MVW)[(Cin /V(t))-Cout ] (1)\nwhere V(t) is relative intravesicular volume as a function of time, Pf is osmotic water permeability in centimeters per second, SAV is the vesicle surface area to volume ratio, MVW is the molar volume of water (18 cm^3 /mol), and Cin and Cout are the initial concentrations of total solute inside and outside the vesicle, respectively (Zeidel et al., 1992, Biochemistry 31:589-596).\nEffect of mercural reagents."}, "AQP5": {"molecular_target": "T2, AQP5 (Rattus norvegicus, UniProt P47864)", "T2 construct": "expressed in transfected cells; host or cells: Xenopus oocytes (defolliculated, stage V-VI) injected with cRNA", "T2 sequence (P47864 whole entry, the tested form may be a part)": "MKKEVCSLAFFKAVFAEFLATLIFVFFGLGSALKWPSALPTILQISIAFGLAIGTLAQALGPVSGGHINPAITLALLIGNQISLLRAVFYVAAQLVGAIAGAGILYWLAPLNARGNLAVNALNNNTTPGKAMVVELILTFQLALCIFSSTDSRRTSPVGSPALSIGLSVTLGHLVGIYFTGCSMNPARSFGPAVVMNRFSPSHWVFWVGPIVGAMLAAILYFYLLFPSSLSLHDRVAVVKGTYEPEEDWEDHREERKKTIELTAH", "assay": "Xenopus oocyte swelling assay, AQP5-expressing oocytes treated with HgCl2 / β-mercaptoethanol", "format": "cell-based", "settings": "for effect of HgCl2 on Pf of oocytes expressing AQP5: 1 mM HgCl2, 5 min.", "experimental": "Functional expression in Oocytes--A 1-kb BamHI fragment containing the 5' untranslated sequence and the entire open reading frame of the salivary cDNA was blunt-end-ligated into the BglII site of the Xenopus expression construct pXβG, which contains the HindIII-Pst insert of pSP64T in pBS II KS (Preston et al., 1992, Science, 256:385-387). Capped cRNA was synthesized in vitro after digestion with Xbal (Preston et al., 1993). Defolliculated stage V-VI Xenopus oocytes were injected with 50 nl of water or up to 5 ng of sample cRNAs and incubated for 3 days at 18° C. in 200 mosM modified Barth's buffer. The oocytes were transferred to 70 mosM modified Barth's buffer at 21° C.; oocyte swelling was monitored by videomicroscopy, and the coefficient of osmotic water permeability (Pf) was determined (Preston et al., 1992, 1993). Uptake of [^14 C]urea or [^14 C]glycerol was measured by incubating oocytes in 200 mosM Barth's buffer for 10-20 min at 21° C. followed by washing and SDS solubilization. No increase in ion conductance was found when control oocytes were compared to RNA-injected oocytes by two electrode voltage clamps (Preston et al, 1992).\nShown are the mean values and standard deviations of 4-5 oocytes receiving no further treatment (stippled bars), oocytes incubated for 5 min. in 1 mM HgCl2 (black bars), or oocytes incubated for 5 min. in 1 mM HgCl2 followed by 30 min. in 5 mM β-mercaptoethanol (open bars). Similar to oocytes injected with AQP1 cRNA, injection of oocytes with the salivary cRNA increased the Pf by approximately 20-fold (FIG. 15). Therefore, the salivary protein qualifies as the 5th mammalian member of the Aquaporin family of water channels (Agre et al., 1993b, Am. J. Physiol., 265:F461), and the gene has been designated Aquaporin-5 (symbol AQP5) by the Genome Data Base."}}, "note": "Entries after “also recorded” stand apart in the source; their conditions may differ."}
{"smiles": "[Cl][Hg][Cl]", "note": "[HgCl2]", "values": [{"measurement": "time to complete inhibition of Pf", "setting": "CHIP28; 1 mM, 37° C.", "value": "≤ 5", "unit": "min"}, {"measurement": "Pf in CHIP28 proteoliposomes after mercurial", "setting": "CHIP28; 1 mM, 37° C. (FIG. 12: pCMBS 25 minutes, HgCl2 3 minutes)", "value": "0.007±0.003", "unit": "cm/s"}, {"measurement": "effect of HgCl2 on Pf of oocytes expressing AQP5", "setting": "AQP5", "value": "comparable reduction in Pf; also recorded: reversibly inhibited"}, {"measurement": "effect of HgCl2 on Pf of oocytes expressing AQP5", "setting": "AQP5; listed as Hg Cl2", "value": "reversibly inhibited"}]}
{"smiles": "OCCS", "note": "[β-mercaptoethanol]", "values": [{"measurement": "reversal of inhibition by both mercurial reagents", "setting": "CHIP28; β-mercaptoethanol 5 mM after pCMBS or HgCl2", "value": "completely reversed"}, {"measurement": "Pf of AQP5 oocytes after HgCl2, effect of β-mercaptoethanol", "setting": "AQP5; 5 mM β-mercaptoethanol 30 min. after 1 mM HgCl2", "value": "restored"}]}
